Test results taken from the supplement of paper PMC10307832.

What was measured:
Assay in all cases: relative viability (nuclei count vs DMSO), 5 days (fraction); higher = more cells survive
[1] = system: NCI-H1793
Outline: (§1)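 Nuclei were stained with Hoechst during a one-step fixation (final 0.05% Triton X-100, 1% formaldehyde, 1 ug/ml Hoechst) carried out 5 days after dosing, then counted on 4× images. The cells, lung cancer lines in 1536-well plates, had been dosed by pin tool the day after seeding with one drug alone or a fixed anchor-drug dose plus five library-drug doses (not always all listed) in √10 steps. Relative viability is the nuclei count in treated wells divided by that in vehicle wells, and each value is the median of duplicate plates.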

[2] = system: NCI-H1650
Outline: as §1

[3] = system: HCC-44
Outline: as §1

[4] = system: 201T
Outline: as §1

[5] = system: NCI-H2085
Outline: as §1

[6] = system: COR-L23
Outline: as §1

[7] = system: NCI-H1563
Outline: as §1

[8] = system: NCI-H2347
Outline: as §1

[9] = system: NCI-H2405
Outline: as §1

[10] = system: NCI-H2023
Outline: as §1

[11] = system: NCI-H520
Outline: as §1

[12] = system: NCI-H3122
Outline: as §1

[13] = system: NCI-H1734
Outline: as §1

[14] = system: RERF-LC-KJ
Outline: as §1

[15] = system: H3255
Outline: as §1

[16] = system: NCI-H2170
Outline: as §1

[17] = system: EPLC-272H
Outline: as §1

[18] = system: PC-14
Outline: as §1

[19] = system: NCI-H647
Outline: as §1

[20] = system: NCI-H1993
Outline: as §1

[21] = system: LOU-NH91
Outline: as §1

O=C(O)c1ccc(-c2c[nH]c3ncc(-c4ccccc4)cc23)cc1C1CCCC1 + CS(=O)(=O)CCNCc1ccc(-c2ccc3ncnc(Nc4ccc(OCc5cccc(F)c5)c(Cl)c4)c3c2)o1 [Lapatinib] (partner 2 µM) was tested, and the relative viability ([1]; first compound 0.04 µM) was 0.897, the relative viability ([1]; first compound 0.1265 µM) was 1.34 and the relative viability ([1]; first compound 0.4 µM) was 0.969. The relative viability ([1]; first compound 1.265 µM) was 0.71, the relative viability ([2]; first compound 0.04 µM) was 0.731 and the relative viability ([2]; first compound 0.1265 µM) was 0.758. The relative viability ([2]; first compound 0.4 µM) was 0.725, the relative viability ([2]; first compound 1.265 µM) was 0.529 and the relative viability ([3]; first compound 0.04 µM) was 0.959. The relative viability ([3]; first compound 0.1265 µM) was 1.02, the relative viability ([3]; first compound 0.4 µM) was 1.1 and the relative viability ([3]; first compound 1.265 µM) was 0.913. It also gave a relative viability ([4]; first compound 0.04 µM) of 0.966, a relative viability ([4]; first compound 0.1265 µM) of 1.06 and a relative viability ([4]; first compound 0.4 µM) of 1.01. The relative viability ([4]; first compound 1.265 µM) was 0.988, the relative viability ([5]; first compound 0.04 µM) was 0.762 and the relative viability ([5]; first compound 0.1265 µM) was 0.947. For the same compound, the relative viability ([5]; first compound 0.4 µM) was 0.799, the relative viability ([5]; first compound 1.265 µM) was 0.508 and the relative viability ([6]; first compound 0.04 µM) was 0.89. The relative viability ([6]; first compound 0.1265 µM) was 1.09, the relative viability ([6]; first compound 0.4 µM) was 1.01 and the relative viability ([6]; first compound 1.265 µM) was 0.654. The relative viability ([7]; first compound 0.04 µM) was 1.07, the relative viability ([7]; first compound 0.1265 µM) was 0.939 and the relative viability ([7]; first compound 0.4 µM) was 0.933. It also gave a relative viability ([7]; first compound 1.265 µM) of 0.968, a relative viability ([8]; first compound 0.04 µM) of 0.96 and a relative viability ([8]; first compound 0.1265 µM) of 0.933. The relative viability ([8]; first compound 0.4 µM) was 0.9, the relative viability ([8]; first compound 1.265 µM) was 0.881 and the relative viability ([9]; first compound 0.04 µM) was 1.08. It also gave a relative viability ([9]; first compound 0.1265 µM) of 1.34, a relative viability ([9]; first compound 0.4 µM) of 0.868 and a relative viability ([9]; first compound 1.265 µM) of 0.867. It also gave a relative viability ([10]; first compound 0.04 µM) of 0.915, a relative viability ([10]; first compound 0.1265 µM) of 0.938 and a relative viability ([10]; first compound 0.4 µM) of 0.779. The relative viability ([10]; first compound 1.265 µM) was 0.511, the relative viability ([11]; first compound 0.04 µM) was 1.01 and the relative viability ([11]; first compound 0.1265 µM) was 0.858. It also gave a relative viability ([11]; first compound 0.4 µM) of 0.847, a relative viability ([11]; first compound 1.265 µM) of 0.604 and a relative viability ([12]; first compound 0.04 µM) of 1.02. It also gave a relative viability ([12]; first compound 0.1265 µM) of 1.01, a relative viability ([12]; first compound 0.4 µM) of 0.974 and a relative viability ([12]; first compound 1.265 µM) of 0.857. For the same compound, the relative viability ([13]; first compound 0.04 µM) was 1.07, the relative viability ([13]; first compound 0.1265 µM) was 1.1 and the relative viability ([13]; first compound 0.4 µM) was 0.955. For the same compound, the relative viability ([13]; first compound 1.265 µM) was 0.984, the relative viability ([14]; first compound 0.04 µM) was 0.8 and the relative viability ([14]; first compound 0.1265 µM) was 0.848. For the same compound, the relative viability ([14]; first compound 0.4 µM) was 0.832, the relative viability ([14]; first compound 1.265 µM) was 0.825 and the relative viability ([15]; first compound 0.04 µM) was 0.24. For the same compound, the relative viability ([15]; first compound 0.1265 µM) was 0.231, the relative viability ([15]; first compound 0.4 µM) was 0.26 and the relative viability ([15]; first compound 1.265 µM) was 0.275. The relative viability ([16]; first compound 0.04 µM) was 0.26, the relative viability ([16]; first compound 0.1265 µM) was 0.324 and the relative viability ([16]; first compound 0.4 µM) was 0.262. It also gave a relative viability ([16]; first compound 1.265 µM) of 0.28, a relative viability ([17]; first compound 0.04 µM) of 1.16 and a relative viability ([17]; first compound 0.1265 µM) of 1.01. The relative viability ([17]; first compound 0.4 µM) was 0.898, the relative viability ([17]; first compound 1.265 µM) was 0.877 and the relative viability ([18]; first compound 0.04 µM) was 0.304. The relative viability ([18]; first compound 0.1265 µM) was 0.391, the relative viability ([18]; first compound 0.4 µM) was 0.339 and the relative viability ([18]; first compound 1.265 µM) was 0.302. For the same compound, the relative viability ([19]; first compound 0.04 µM) was 1.05, the relative viability ([19]; first compound 0.1265 µM) was 1.12 and the relative viability ([19]; first compound 0.4 µM) was 1.13. It also gave a relative viability ([19]; first compound 1.265 µM) of 0.801, a relative viability ([20]; first compound 0.04 µM) of 0.927 and a relative viability ([20]; first compound 0.4 µM) of 0.789. The relative viability ([20]; first compound 1.265 µM) was 0.835, the relative viability ([21]; first compound 0.04 µM) was 0.814 and the relative viability ([21]; first compound 0.1265 µM) was 0.837. For the same compound, the relative viability ([21]; first compound 0.4 µM) was 0.766 and the relative viability ([21]; first compound 1.265 µM) was 0.651.
